Data taken from US5468472A, “Topical process for lightening the skin or treating pigmental blemishes using a composition containing 4-thioresorcin derivatives” (L'Oreal, priority 1993, dated 1995).

System: fungal tyrosinase
Assay: in vitro inhibition test of the activity of tyrosinase (dopachrome formation, 475 nm)
Type: biochemical
Conditions: inhibitor at 50 mol % with respect to tyrosine; lowering of maximum dopachrome (OD 475 nm at plateau) vs no inhibitor; pH 6.5, 25° C.
Text: According to this test, the amount of dopachrome formed during the chain of reactions of conversion of tyrosine to melanins is monitored by visible spectrometry at 475 nm.
The concentration of dopachrome formed with time in the presence and in the absence of the inhibitor thus measured.
The inhibitor concentrations are set at 50 mol % with respect to the concentration of tyrosine in the reaction medium.
The inhibition effect is expressed by the lowering in the maximum amount of dopachrome formed (optical density value at 475 nm read at the plateau of the curve) with respect to the amount obtained in the absence of inhibitor.
A - 0.1M Phosphate buffer, pH=6.5 (1% Tween 20)
B - 2.10^-3 M Mother solution of L-tyrosine in A
C - 10^-4 M Mother solution of L-dopa in A
D - Mother solution of fungal tyrosinase in A containing 2,400 units/ml
E - 10^-2 M Mother solution of the inhibitor in A (Solutions C and D are to be prepared on the day)
reference cell: 3 ml of A
homogenize and equilibrate at 25° C.
mix rapidly and observe the kinetics by measuring the absorbence at 475 nm as a function of time.

SMILES	% change in maximum dopachrome vs no inhibitor [%]
Oc1ccc(SCCCN2CCOCC2)c(O)c1	-65
CC(C)Sc1ccc(O)cc1O	-84
CCSc1ccc(O)cc1O	-88
Oc1ccc(SCc2ccccc2)c(O)c1	-95
CSc1ccc(O)cc1O	-90
Oc1ccc(SCCSc2ccc(O)cc2O)c(O)c1	-79
CCOC(=O)CSc1ccc(O)cc1O	-94
Oc1ccc(O)cc1 [hydroquinone, reference compound]	-33
CCCSc1ccc(O)cc1O	-76
